US20190216761A1, “COMPOSITIONS COMPRISING 15-HEPE AND METHODS OF USING THE SAME” (Afimmune Limited, priority 2015, published 2019)
Marks after values point to notes of the source that are not given here.

Key:
rPPARδ = experiment: PPAR antagonist reporter assay (reference agonist at EC80); assay type: cell-based, rat
Procedure: (§1) This study utilized proprietary reporter cells expressing a hybrid receptor comprising the N-terminal Gal4 DNA binding domain fused to the ligand binding domain of the specific human nuclear receptor (hPPARα, hPPARδ, and hPPARγ) and rat nuclear receptor (rPPARα, rPPARδ, and rPPARγ). The reporter vectors used in this Example comprise the firefly luciferase gene functionally linked to the Gal4 upstream activation sequence.
(§2) Nuclear Receptor assay was performed by suspending Reporter Cells in CRM containing 10% charcoal stripped FBS. 2×-EC80 concentrations of the appropriate reference agonist were then added to the Reporter Cell suspension, and 100 μL of the mixture dispensed into wells of a white 96-well plate. Test compounds were diluted using compound screening medium (CSM) containing 10% charcoal stripped FBS to generate “2×-concentration” treatment media. Immediately after this dilution step, 100 μL of each diluted 2×-concentration treatment medium was dispensed (in triplicate) into the Reporter Cell-containing assay wells.
(§3) After incubation at 37° C. for 24 hours, the treatment media was discarded. Each well was rinsed once with LCM Buffer; LCM substrate was then added. After incubation for 30 minutes at 37° C., fluorescence was measured to determine the relative number of live cells per assay well. LCM substrate was then discarded and 100 μL of Luciferase Detection Reagent substrate was added to each well. RLUs were quantified from each well to determine nuclear receptor activities.

hPPARα = target: T1, hPPARα (Homo sapiens, UniProt Q07869); experiment: PPAR agonist reporter assay (Gal4 hybrid receptor, luciferase); assay type: cell-based
T1 construct: expressed in transfected cells
T1 sequence (Q07869 239-466 limits assumed): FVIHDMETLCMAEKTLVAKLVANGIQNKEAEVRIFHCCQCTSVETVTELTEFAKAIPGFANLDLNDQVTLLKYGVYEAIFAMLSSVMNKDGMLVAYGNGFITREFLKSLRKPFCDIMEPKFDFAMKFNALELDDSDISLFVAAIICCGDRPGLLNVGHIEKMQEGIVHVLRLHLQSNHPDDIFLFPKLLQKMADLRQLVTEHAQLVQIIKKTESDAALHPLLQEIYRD
Procedure: as §1
Nuclear Receptor assay was performed by dispensing 100 μL of a suspension of Reporter Cells in Cell Recovery Medium (CRM) containing 10% charcoal stripped FBS into each well of a white 96-well plate. Test compounds were diluted using compound screening medium (CSM) containing 10% charcoal stripped FBS to generate “2×-concentration” treatment media. Immediately after this dilution step, 100 μL of each diluted 2×-concentration treatment medium was dispensed (in triplicate) into the Reporter Cell-containing assay wells.
After incubation at 37° C. for 24 hours, the treatment media was discarded. 100 μL of Luciferase Detection Reagent substrate was added to each well and RLUs were quantified from each well to determine nuclear receptor activities.

rPPARγ Reporter Cells = experiment: Live cell multiplex assay; assay type: cell-based
Procedure: as §1, §2, §3

hPPARδ Reporter Cells = experiment: Live cell multiplex assay; assay type: cell-based
Procedure: as §1, §2, §3

rPPARα Reporter Cells = experiment: Live cell multiplex assay; assay type: cell-based
Procedure: as §1, §2, §3

hPPARγ Reporter Cells = experiment: Live cell multiplex assay; assay type: cell-based
Procedure: as §1, §2, §3

hPPARα Reporter Cells = experiment: Live cell multiplex assay; assay type: cell-based
Procedure: as §1, §2, §3

rPPARδ Reporter Cells = experiment: Live cell multiplex assay; assay type: cell-based
Procedure: as §1, §2, §3

SMILES: CC/C=C\C[C@H](O)/C=C/C=C\C/C=C\C/C=C\CCCC(=O)OCC [15-HEPE-EE, 15-HEPE ethyl ester]
- % Inhibition of agonist-stimulated receptor activity vs. 0.10% DMSO, rPPAR-δ (rPPARδ; 137 nM): 25%
- % Inhibition of agonist-stimulated receptor activity vs. 0.10% DMSO, rPPAR-δ (rPPARδ; 412 nM): 1.5%
- % Inhibition of agonist-stimulated receptor activity vs. 0.10% DMSO, rPPAR-δ (rPPARδ; 1,235 nM): −1.8%
- % Inhibition of agonist-stimulated receptor activity vs. 0.10% DMSO, rPPAR-δ (rPPARδ; 3,704 nM): 6.8%
- % Inhibition of agonist-stimulated receptor activity vs. 0.10% DMSO, rPPAR-δ (rPPARδ; 11,111 nM): 1.2%
- % Inhibition of agonist-stimulated receptor activity vs. 0.10% DMSO, rPPAR-δ (rPPARδ; 33,333 nM): 26%
- % Inhibition of agonist-stimulated receptor activity vs. 0.10% DMSO, rPPAR-δ (rPPARδ; 100,000 nM): 58%
- % Inhibition of agonist-stimulated receptor activity vs. 0.10% DMSO, rPPAR-δ (rPPARδ; 300,000 nM): 100%
- inhibition of rat PPARs (in words), rPPARδ (rPPARδ; at higher test concentrations): apparent inhibition
- Fold-Activation (vs. 0.10% DMSO) hPPAR-α (hPPARα; 137 nM): 0.90 fold
- Fold-Activation (vs. 0.10% DMSO) hPPAR-α (hPPARα; 412 nM): 1.1 fold
- Fold-Activation (vs. 0.10% DMSO) hPPAR-α (hPPARα; 1,235 nM): 1.1 fold
- Fold-Activation (vs. 0.10% DMSO) hPPAR-α (hPPARα; 3,704 nM): 2.1* fold
- Fold-Activation (vs. 0.10% DMSO) hPPAR-α (hPPARα; 11,111 nM): 4.2* fold
- Fold-Activation (vs. 0.10% DMSO) hPPAR-α (hPPARα; 33,333 nM): 6.8* fold
- Fold-Activation (vs. 0.10% DMSO) hPPAR-α (hPPARα; 100,000 nM): 5.0* fold
- Fold-Activation (vs. 0.10% DMSO) hPPAR-α (hPPARα; 300,000 nM): 0.98 fold
- agonism activity against human PPARα (in words) (hPPARα; at low to higher doses in the dose response curve): moderate agonism activity
- % Live cells vs. 0.10% DMSO, rPPAR-γ (rPPARγ Reporter Cells; 137 nM): 98%
- % Live cells vs. 0.10% DMSO, rPPAR-γ (rPPARγ Reporter Cells; 412 nM): 101%
- % Live cells vs. 0.10% DMSO, rPPAR-γ (rPPARγ Reporter Cells; 1,235 nM): 101%
- % Live cells vs. 0.10% DMSO, rPPAR-γ (rPPARγ Reporter Cells; 3,704 nM): 100%
- % Live cells vs. 0.10% DMSO, rPPAR-γ (rPPARγ Reporter Cells; 11,111 nM): 101%
- % Live cells vs. 0.10% DMSO, rPPAR-γ (rPPARγ Reporter Cells; 33,333 nM): 101%
- % Live cells vs. 0.10% DMSO, rPPAR-γ (rPPARγ Reporter Cells; 100,000 nM): 99%
- % Live cells vs. 0.10% DMSO, rPPAR-γ (rPPARγ Reporter Cells; 300,000 nM): 91%
- % Live cells vs. 0.10% DMSO, hPPAR-δ (hPPARδ Reporter Cells; 137 nM): 95%
- % Live cells vs. 0.10% DMSO, hPPAR-δ (hPPARδ Reporter Cells; 412 nM): 98%
- % Live cells vs. 0.10% DMSO, hPPAR-δ (hPPARδ Reporter Cells; 1,235 nM): 99%
- % Live cells vs. 0.10% DMSO, hPPAR-δ (hPPARδ Reporter Cells; 3,704 nM): 100%
- % Live cells vs. 0.10% DMSO, hPPAR-δ (hPPARδ Reporter Cells; 11,111 nM): 101%
- % Live cells vs. 0.10% DMSO, hPPAR-δ (hPPARδ Reporter Cells; 33,333 nM): 101%
- % Live cells vs. 0.10% DMSO, hPPAR-δ (hPPARδ Reporter Cells; 100,000 nM): 101%
- % Live cells vs. 0.10% DMSO, hPPAR-δ (hPPARδ Reporter Cells; 300,000 nM): 7.7%
- % Live cells vs. 0.10% DMSO, rPPAR-α (rPPARα Reporter Cells; 137 nM): 89%
- % Live cells vs. 0.10% DMSO, rPPAR-α (rPPARα Reporter Cells; 412 nM): 98%
- % Live cells vs. 0.10% DMSO, rPPAR-α (rPPARα Reporter Cells; 1,235 nM): 97%
- % Live cells vs. 0.10% DMSO, rPPAR-α (rPPARα Reporter Cells; 3,704 nM): 99%
- % Live cells vs. 0.10% DMSO, rPPAR-α (rPPARα Reporter Cells; 11,111 nM): 99%
- % Live cells vs. 0.10% DMSO, rPPAR-α (rPPARα Reporter Cells; 33,333 nM): 98%
- % Live cells vs. 0.10% DMSO, rPPAR-α (rPPARα Reporter Cells; 100,000 nM): 76%
- % Live cells vs. 0.10% DMSO, rPPAR-α (rPPARα Reporter Cells; 300,000 nM): 3.1%
- % Live cells vs. 0.10% DMSO, hPPAR-γ (hPPARγ Reporter Cells; 137 nM): 86%
- % Live cells vs. 0.10% DMSO, hPPAR-γ (hPPARγ Reporter Cells; 412 nM): 99%
- % Live cells vs. 0.10% DMSO, hPPAR-γ (hPPARγ Reporter Cells; 1,235 nM): 101%
- % Live cells vs. 0.10% DMSO, hPPAR-γ (hPPARγ Reporter Cells; 3,704 nM): 101%
- % Live cells vs. 0.10% DMSO, hPPAR-γ (hPPARγ Reporter Cells; 11,111 nM): 100%
- % Live cells vs. 0.10% DMSO, hPPAR-γ (hPPARγ Reporter Cells; 33,333 nM): 99%
- % Live cells vs. 0.10% DMSO, hPPAR-γ (hPPARγ Reporter Cells; 100,000 nM): 91%
- % Live cells vs. 0.10% DMSO, hPPAR-γ (hPPARγ Reporter Cells; 300,000 nM): 4.9%
- % Live cells vs. 0.10% DMSO, hPPAR-α (hPPARα Reporter Cells; 137 nM): 96%
- % Live cells vs. 0.10% DMSO, hPPAR-α (hPPARα Reporter Cells; 412 nM): 94%
- % Live cells vs. 0.10% DMSO, hPPAR-α (hPPARα Reporter Cells; 1,235 nM): 119%
- % Live cells vs. 0.10% DMSO, hPPAR-α (hPPARα Reporter Cells; 3,704 nM): 120%
- % Live cells vs. 0.10% DMSO, hPPAR-α (hPPARα Reporter Cells; 11,111 nM): 117%
- % Live cells vs. 0.10% DMSO, hPPAR-α (hPPARα Reporter Cells; 33,333 nM): 115%
- % Live cells vs. 0.10% DMSO, hPPAR-α (hPPARα Reporter Cells; 100,000 nM): 69%
- % Live cells vs. 0.10% DMSO, hPPAR-α (hPPARα Reporter Cells; 300,000 nM): 35%
- % Live cells vs. 0.10% DMSO, rPPAR-δ (rPPARδ Reporter Cells; 137 nM): 99%
- % Live cells vs. 0.10% DMSO, rPPAR-δ (rPPARδ Reporter Cells; 412 nM): 97%
- % Live cells vs. 0.10% DMSO, rPPAR-δ (rPPARδ Reporter Cells; 1,235 nM): 98%
- % Live cells vs. 0.10% DMSO, rPPAR-δ (rPPARδ Reporter Cells; 3,704 nM): 99%
- % Live cells vs. 0.10% DMSO, rPPAR-δ (rPPARδ Reporter Cells; 11,111 nM): 100%
- % Live cells vs. 0.10% DMSO, rPPAR-δ (rPPARδ Reporter Cells; 33,333 nM): 100%
- % Live cells vs. 0.10% DMSO, rPPAR-δ (rPPARδ Reporter Cells; 100,000 nM): 99%
- % Live cells vs. 0.10% DMSO, rPPAR-δ (rPPARδ Reporter Cells; 300,000 nM): 5.0%
